Results from ChEMBL document CHEMBL1157248, “Polar steroidal compounds from the far eastern starfish Henricia leviuscula” (J Nat Prod, 2006).

How the values were obtained:
Format in all cases: cell-based, Erythrocyte
[1] = Toxicity in mouse erythrocytes assessed as hemolysis at 0.08 mM during 5 mins; settings: read-out: Activity
[2] = Toxicity in mouse erythrocytes assessed as hemolysis
[3] = Toxicity in mouse erythrocytes assessed as hemolysis at 0.1 mM during 5 mins

Question: For `CO[C@@H]1[C@@H](OC)[C@H](O[C@@H]2C=C3[C@H](O)C[C@@]4(O)[C@@H]5[C@@H](O)[C@H](O)[C@H]([C@H](C)/C=C/C(C)CCO)[C@@]5(C)CC[C@@H]4[C@@]3(C)CC2)OC[C@H]1O` (some centres undefined), which hemolysis at 5 min, 80 µM [1] is on record?
Answer: The hemolysis at 5 min, 80 µM was 100%.

Question: What about the HC50 [2] of the same molecule?
Answer: The HC50 was 80 µM.

Question: With `CC(C)[C@@H](O)CC[C@@H](C)[C@H]1C[C@@H](O)[C@@H]2[C@]1(C)CC[C@@H]1[C@@]3(C)CC[C@H](O)[C@H](O)[C@@H]3[C@H](O)C[C@]12O` as the molecule, how does the hemolysis at 5 min, 100 µM ([3]; mouse erythrocytes, read-out: Activity) read?
Answer: The hemolysis at 5 min, 100 µM was 100%.

Question: What about the HC50 [2] of the same molecule?
Answer: Its HC50 is 53 µM.

Question: With `C[C@H](CC[C@@H](O)C(C)(C)O)[C@H]1C[C@@H](O)[C@@H]2[C@]1(C)CC[C@@H]1[C@@]3(C)CC[C@H](O)[C@H](O)[C@@H]3[C@H](O)C[C@]12O` as the molecule, how does the Activity ([3]; erythrocyte, 5 min, 100 µM) read?
Answer: Its Activity is “Not Active”.

Question: What about the HC50 [2] of the same molecule?
Answer: Its HC50 is 210 µM.

Question: Which results are given for `CO[C@@H]1[C@@H](OC)[C@H](O[C@@H]2C=C3[C@H](O)C[C@@]4(O)[C@@H]5[C@@H](O)[C@H](O)[C@H]([C@H](C)/C=C/[C@@H](C)[C@H](C)CO)[C@@]5(C)CC[C@@H]4[C@@]3(C)CC2)OC[C@H]1O` [HENRICIOSIDE H2]?
Answer: hemolysis at 5 min, 80 µM [1]: 70%; HC50 [2]: 120 µM

Question: With `CO[C@H]1[C@H](O[C@H]2CC[C@@]3(C)[C@H]([C@H]2O)[C@H](O)C[C@]2(O)[C@@H]3CC[C@]3(C)[C@@H]([C@H](C)CC[C@H](O[C@@H]4O[C@@H](CO)[C@H](O)[C@H]4O)C(C)C)C[C@H](O)[C@H]32)OC[C@@H](OC)[C@@H]1O` [LAEVIUSCOLOSIDE G] as the molecule, how does the HC50 [2] read?
Answer: The HC50 was 130 µM.
